Laboratory results published in patent publication US7655395B2, “Isolation and use of ryanodine receptors” (E.I. du Pont de Nemours and Company, priority 2002, dated 2010).

Test system: recombinant Heliothis virescens ryanodine receptor (expressed in Sf9 cells)
Assay: Calcium release assay, Sf9 cells transiently or stably expressing Heliothis virescens ryanodine receptor (Fura-2)
Format: cell-based
Conditions: for calcium response: Sf9 stably expressing H. virescens ryanodine receptor, FIG. 5
Procedure: SF9 cells were grown at 27 degrees C. in a Corning 125 ml polycarbonate Erlenmeyer flask to a density of 3.1 million cells per ml in SF900-II serum free media (Gibco catalog no. 10902-088, Invitrogen™, Carlsbad, Calif.). One million cells were transferred to one well of a Corning 6-well, flat bottom cell culture dish (Corning Inc., Acton, Mass., catalog no. 3516). SF900-II media was used to bring the final volume in the dish to 2 ml and the cells were incubated at 27 degrees C. for 21 h. Following the incubation the media was aspirated from the dish and replaced with 1 ml of SF900-II media pre-warmed to 27 degrees C.
In the case of the vectors containing the Cre recognition elements, the transfection solution was mixed in a 1.5 ml microfuge tube by combining 5 ug of pHE7 plasmid, 5 ug of pMLS104 Cre plasmid and 0.5 ug of lacZ reporter plasmid, 15 ug of cellfectin reagent (Invitrogen cat. #10362-010) and SF900-II serum free media (Gibco catalog #10902-088, Invitrogen™, Carlsbad, Calif.) in a total volume of 500 ul. The solution was incubated for 1 hour at room temperature just prior to the transfection.
The transfection was accomplished by adding the transfection solution drop-wise to the dish and incubating 4 h at room temperature with gentle rocking. After the 4 h incubation the media was replaced with 2 ml of SF900-II media pre-warmed to 27 degrees C. and the cells were incubated 3 days at 27 degrees C.
Several drops of a suspension of recombinant Spodoptera frugiperda cell line, Sf9, transiently expressing insect ryanodine receptors were placed on a poly-L-lysine-coated coverslip and allowed to attach. Cells were then rinsed in physiological saline having the following composition (mM): NaCl 130; KCl 5.4; MgCl2 1.2; CaCl2 1.0; NaHCO3 4.2; NaH2P04 7.3; Glucose 10; Sucrose 63; MES 20; pH 6.3. Cells were then bathed in physiological saline containing the calcium sensitive fluoroprobe, Fura-2 AM (2 μM), and Pluronic F127 (0.002%) for 30 min. Cells were rinsed in standard physiological saline for at least 15 min prior to testing. […]
For studies involving the stable recombinant Spodoptera frugiperda cell line, Sf9, (other cell lines could also be used such as Sf21, S2, etc) expressing an insect ryanodine receptor from Drosophila melanogaster, or Heliothis virescens (alternatively receptors from other species such as Myzus persicae, Peregrinus maidis, Aphis gossypii, etc) were grown in T75 (or other appropriate sized) flasks in supplemented Grace's insect medium. […] After a 30 minute equilibration period the cell plate was tested using a Molecular Devices' FlexStation™ system with dual wavelength excitation (340 and 380 nm) and fluorescence emission measured at 510 nm. […]

Row | Structure (SMILES) | calcium response (caffeine 10 mM) | cytosolic [Ca2+] response (caffeine 10 mM, Sf9 transiently expressing H. virescens ryanodine receptor, 72 hr post-transfection, FIG. 4) | calcium response (Compound 14 1 μM)
1 | Cn1c(=O)c2c(ncn2C)n(C)c1=O [Caffeine, reference compound] | calcium responses elicited | increase in cytosolic [Ca^2+] | –
2 | CNC(=O)c1cc(Cl)cc(C)c1NC(=O)c1cc(Br)nn1-c1ncccc1Cl [Cpd 14] | – | – | calcium responses elicited
